Converted amounts (≈) assume the structure as drawn.
Key:
Format in all cases: functional
Enterococcus faecium [1] = test: Antimicrobial activity against Enterococcus faecium clinical isolates assessed as percent susceptible isolates by broth microdilution method
Enterococcus faecium [2] = test: Antimicrobial activity against Enterococcus faecium expressing VanB gene clinical isolates assessed as percent susceptible isolates by broth microdilution method
[3] = tested on: Staphylococcus epidermidis; test: Antimicrobial activity against oxacillin-susceptible Staphylococcus epidermidis clinical isolates by broth microdilution method
Enterococcus faecium [4] = test: Antimicrobial activity against Enterococcus faecium expressing VanB gene clinical isolates by broth microdilution method
Enterococcus faecalis [5] = test: Antimicrobial activity against vancomycin-nonsusceptible Enterococcus faecalis clinical isolates by broth microdilution method
[6] = tested on: Staphylococcus epidermidis; test: Antimicrobial activity against Staphylococcus epidermidis clinical isolates assessed as percent susceptible isolates by broth microdilution method
Enterococcus faecalis [7] = test: Antimicrobial activity against vancomycin-nonsusceptible Enterococcus faecalis clinical isolates assessed as percent susceptible isolates by broth microdilution method
Enterococcus faecium [8] = test: Antimicrobial activity against Enterococcus faecium expressing VanA gene clinical isolates assessed as percent susceptible isolates by broth microdilution method
[9] = tested on: Staphylococcus haemolyticus; test: Antimicrobial activity against Staphylococcus haemolyticus clinical isolates by broth microdilution method
Enterococcus faecalis [10] = test: Antimicrobial activity against Enterococcus faecalis expressing VanA gene clinical isolates by broth microdilution method
Enterococcus faecalis [11] = test: Antimicrobial activity against Enterococcus faecalis clinical isolates assessed as percent susceptible isolates by broth microdilution method
Enterococcus faecalis [12] = test: Antimicrobial activity against Enterococcus faecalis expressing VanB gene clinical isolates by broth microdilution method
Enterococcus faecium [13] = test: Antimicrobial activity against vancomycin-susceptible Enterococcus faecium clinical isolates by broth microdilution method
[14] = tested on: Staphylococcus epidermidis; test: Antimicrobial activity against oxacillin-susceptible Staphylococcus epidermidis clinical isolates assessed as percent susceptible isolates by broth microdilution method
Enterococcus faecium [15] = test: Antimicrobial activity against vancomycin-susceptible Enterococcus faecium clinical isolates assessed as percent susceptible isolates by broth microdilution method
[16] = tested on: Staphylococcus haemolyticus; test: Antimicrobial activity against oxacillin-susceptible Staphylococcus haemolyticus clinical isolates assessed as percent susceptible isolates by broth microdilution method
Enterococcus faecium [17] = test: Antimicrobial activity against vancomycin-nonsusceptible Enterococcus faecium clinical isolates assessed as percent susceptible isolates by broth microdilution method
[18] = tested on: Staphylococcus haemolyticus; test: Antimicrobial activity against oxacillin-susceptible Staphylococcus haemolyticus clinical isolates by broth microdilution method
Staphylococcus aureus [19] = test: Antimicrobial activity against Staphylococcus aureus clinical isolates by broth microdilution method
Staphylococcus aureus [20] = test: Antimicrobial activity against oxacillin-susceptible Staphylococcus aureus clinical isolates assessed as percent susceptible isolates by broth microdilution method
Enterococcus faecalis [21] = test: Antimicrobial activity against vancomycin-susceptible Enterococcus faecalis clinical isolates assessed as percent susceptible isolates by broth microdilution method
[22] = tested on: Staphylococcus haemolyticus; test: Antimicrobial activity against Staphylococcus haemolyticus clinical isolates assessed as percent susceptible isolates by broth microdilution method
Staphylococcus aureus [23] = test: Antimicrobial activity against oxacillin-susceptible Staphylococcus aureus clinical isolates by broth microdilution method
Enterococcus faecalis [24] = test: Antimicrobial activity against vancomycin-susceptible Enterococcus faecalis clinical isolates by broth microdilution method
Staphylococcus aureus [25] = test: Antimicrobial activity against oxacillin-resistant Staphylococcus aureus clinical isolates by broth microdilution method
Enterococcus faecalis [26] = test: Antimicrobial activity against Enterococcus faecalis expressing VanA gene clinical isolates assessed as percent susceptible isolates by broth microdilution method
Enterococcus faecium [27] = test: Antimicrobial activity against Enterococcus faecium clinical isolates by broth microdilution method
[28] = tested on: Staphylococcus epidermidis; test: Antimicrobial activity against oxacillin-resistant Staphylococcus epidermidis clinical isolates by broth microdilution method
Staphylococcus aureus [29] = test: Antimicrobial activity against Staphylococcus aureus clinical isolates assessed as percent susceptible isolates by broth microdilution method
Enterococcus faecalis [30] = test: Antimicrobial activity against Enterococcus faecalis clinical isolates by broth microdilution method
[31] = tested on: Staphylococcus haemolyticus; test: Antimicrobial activity against oxacillin-resistant Staphylococcus haemolyticus clinical isolates by broth microdilution method
[32] = tested on: Staphylococcus epidermidis; test: Antimicrobial activity against Staphylococcus epidermidis clinical isolates by broth microdilution method
Enterococcus faecalis [33] = test: Antimicrobial activity against Enterococcus faecalis expressing VanB gene clinical isolates assessed as percent susceptible isolates by broth microdilution method
Enterococcus faecium [34] = test: Antimicrobial activity against vancomycin-nonsusceptible Enterococcus faecium clinical isolates by broth microdilution method
[35] = tested on: Staphylococcus epidermidis; test: Antimicrobial activity against oxacillin-resistant Staphylococcus epidermidis clinical isolates assessed as percent susceptible isolates by broth microdilution method
Enterococcus faecium [36] = test: Antimicrobial activity against Enterococcus faecium expressing VanA gene clinical isolates by broth microdilution method

CCCCCCCCCC(=O)N[C@@H](Cc1c[nH]c2ccccc12)C(=O)N[C@H](CC(N)=O)C(=O)N[C@@H](CC(=O)O)C(=O)N[C@@H]1C(=O)NCC(=O)N[C@@H](CCCN)C(=O)N[C@@H](CC(=O)O)C(=O)N[C@H](C)C(=O)N[C@@H](CC(=O)O)C(=O)NCC(=O)N[C@H](CO)C(=O)N[C@@H]([C@H](C)CC(=O)O)C(=O)N[C@@H](CC(=O)c2ccccc2N)C(=O)O[C@@H]1C
Activity (Enterococcus faecium [1]): 98.4% | Activity (Enterococcus faecium [2]): 93.1% | MIC90 [3]: 0.5 µg/mL (≈ 0.309 µM) | MIC90 (Enterococcus faecium [4]): 4 µg/mL (≈ 2.47 µM) | MIC90 (Enterococcus faecalis [5]): 2 µg/mL (≈ 1.23 µM) | Activity [6]: 99.9% | Activity (Enterococcus faecalis [7]): 98.9% | Activity (Enterococcus faecium [8]): 98.8% | MIC90 [9]: 0.5 µg/mL (≈ 0.309 µM) | MIC90 (Enterococcus faecalis [10]): 2 µg/mL (≈ 1.23 µM) | Activity (Enterococcus faecalis [11]): 99.9% | MIC90 (Enterococcus faecalis [12]): 2 µg/mL (≈ 1.23 µM) | MIC90 (Enterococcus faecium [13]): 4 µg/mL (≈ 2.47 µM) | Activity [14]: 100% | Activity (Enterococcus faecium [15]): 98.3% | Activity [16]: 100% | Activity (Enterococcus faecium [17]): 98.5% | MIC90 [18]: 0.5 µg/mL (≈ 0.309 µM) | MIC90 (Staphylococcus aureus [19]): 0.5 µg/mL (≈ 0.309 µM) | Activity (Staphylococcus aureus [20]): 99.9% | Activity (Enterococcus faecalis [21]): 99.9% | Activity [22]: 100% | MIC90 (Staphylococcus aureus [23]): 0.5 µg/mL (≈ 0.309 µM) | MIC90 (Enterococcus faecalis [24]): 2 µg/mL (≈ 1.23 µM) | MIC90 (Staphylococcus aureus [25]): 0.5 µg/mL (≈ 0.309 µM) | Activity (Enterococcus faecalis [26]): 98.5% | MIC90 (Enterococcus faecium [27]): 4 µg/mL (≈ 2.47 µM) | MIC90 [28]: 0.5 µg/mL (≈ 0.309 µM) | Activity (Staphylococcus aureus [29]): 99.9% | MIC90 (Enterococcus faecalis [30]): 2 µg/mL (≈ 1.23 µM) | MIC90 [31]: 0.5 µg/mL (≈ 0.309 µM) | MIC90 [32]: 0.5 µg/mL (≈ 0.309 µM) | Activity (Enterococcus faecalis [33]): 100% | MIC90 (Enterococcus faecium [34]): 4 µg/mL (≈ 2.47 µM) | Activity [35]: 99.8% | MIC90 (Enterococcus faecium [36]): 4 µg/mL (≈ 2.47 µM)

— ChEMBL document CHEMBL1649268, “Comparative in vitro activity profile of oritavancin against recent gram-positive clinical isolates” (2009)
